Values quoted from earlier work, collected in PMC9179904 (Cancers, 2022).

Assays:
[1] = test system: PC-3 PIP and LNCaP tumors; set-up: method as in PMID 34402925
[2] = set-up: method as in PMID 7938477, PMID 9935073

Row | Compound | Tumor uptake, PC-3 PIP higher than LNCaP tumors [1] | Internalized alpha particles needed to decrease survival to 37–50% [2]
1 | O=C([O-])CN1CCN(CC(=O)[O-])CCN(CC(=O)NCC2CCC(C(=O)N[C@@H](Cc3ccc4ccccc4c3)C(=O)NCCCC[C@H](NC(=O)N[C@@H](CCC(=O)O)C(=O)O)C(=O)O)CC2)CCN(CC(=O)[O-])CC1.[177Lu+3] (stereo partly drawn) [^177Lu-PSMA-617] | 6–10 fold | –
2 | S=C([S-])N1CCCC1.S=C([S-])N1CCCC1.[Pb+2] [^212Pb(PDC)2] | – | 11
3 | ^213Bi-CHX-A-DTPA-HuM195m | – | 1
